# Measurements published in patent publication US9205135B2, “Podocyte pH modulation and uses thereof” (University of Miami, priority 2009, dated 2015).
# “Also recorded” adds a separate entry of the source. Residues, ends and D or L forms follow the SMILES beside them. *: point of attachment. Cbz = O=C(OCc1ccccc1)*; CH2F = FC*
# Assays:
# NIH 3T3 = assay: Glutamine uptake rate in NIH 3T3 cells; type: cell-based
# Protocol: (§1) All together, these experiments discovered a uniform metabolic response for podocytes that are injured.
# (§2) Cells, antibodies, and standard techniques: Mouse podocyte cell lines (15) and HEK 293 cells (6) were grown as described previously. NIH 3T3 cells were cultured in Dulbecco's modified Eagle's minimal essential medium (Invitrogen, Carlsbad, Calif.) supplemented with 10% fetal calf serum (Invitrogen) and incubated in a humidified atmosphere of 95% air and 5% CO2 at 37° C. Antibody used for immunostaining are Alexa Fluor 594 phalloidin (Molecular Probes, Eugene, Oreg.). Subcellular fractionation was performed as described previously (6).
# cathepsin L = assay: Cathepsin L activity in cultured podocytes, CV-(FR)2 substrate; type: cell-based, mouse
# Protocol: Subcellular sites of cathepsin L and cathepsin B activity in glomerular extracts were visualized by a fluorogenic substrate, CV-(FR)2, which emits light upon cleavage by cathepsin L or cathepsin B (Biomol).
# Measurement of cathepsin L activity: Cathepsin L activities in cultured podocytes and in glomeruli was measured using CV-CatL detection kit (Biomol, Plymouth Meeting, Pa.) as described in the manufacturer's instructions. The fluorophore cresyl violet [CV-(FR)2] substrate becomes florescent after Cat L cleavage of the attached Phe-Arg groups. This substrate easily penetrates the cell membrane and the membranes of the internal cellular organelles, enabling the detection of cathepsin activity within living podocytes.
# HEK293 = assay: Glutamine uptake rate in HEK293 cells; type: cell-based
# Protocol: as §1, §2
# podocytes [1] = assay: Glutamine uptake rate in cultured podocytes; type: cell-based, mouse; details: injury stimulus
# Description: A podocyte metabolic model was constructed based on available databases as well as mRNA and protein expression data extracted from podocytes. The following podocyte culture models were employed: wildtype (control), LPS and PAN stimulated podocytes (inducible injury models) as well as podocytes with genetic deletion of the alpha3 gene (genetic disease model). All injury cultures increase the uptake of glutamine as well as gluconeogenic aminoacids. In addition, there is increasing ammonia production in diseased podocytes. These changes were predicted by the podocyte metabolic model and confirmed by measuring directly amino acids and ammonia (FIGS. 1A-1D).
# Metabolic Flux Analysis emphasizes glutamine utilization pathways for podocyte function: We utilized cultured normal podocytes (control) (15) and three in vitro models for podocyte damage: i) podocytes with α3 integrin deletion (genetic model) (16); ii) podocytes treated with lipopolysaccharides (LPS, immunological model) (17); and iii) podocytes treated with puromycin aminonucleoside (PAN, toxic model) (18). […] Using the podocyte MFA network, we were able to extract podocyte aminoacid and glucose utilization (FIG. 10b-d) that was also independently measured in direct validation studies (data not shown). All analyzed modeling and experimentation data supported the notion that the aminoacid metabolism of podocytes is changed in disease. […]
# cathepsin B = details: cited from earlier work
# C57BL/6 mice = assay: LPS-induced proteinuria model in mice; type: in vivo, mouse; details: for glomerular pH (CMFDA fluorescence of isolated glomeruli): glutamine 0.75 mg/g
# Protocol: Treatment of mice with glutamine increases podocyte pH and protects from LPS-induced proteinuria: In order to translate our in vitro findings into a kidney disease relevant model, we next utilized the LPS model in mice known to cause podocyte foot process effacement and proteinuria driven by induction of cytosolic cathepsin L (6). To this end, mice were either injected with only LPS or treated with high dose (0.75 mg/g) glutamine injection 10 min after LPS administration. We analyzed the relative alkalinity of glomeruli using isolated glomeruli that were incubated with green CMFDA. […] We also tested renal function and measured proteinuria in these mice. […] These effects were also visible on an ultrastructural level.
# (§3) Immunohistochemistry and immunoelectron microscopy: For immunofluorescent labeling, sections were washed once with PBS and incubated with blocking solution (2% FCS, 2% BSA, 0.2% fish gelatin) for 30 min at room temperature before further incubation with the primary antibody for 1 h at room temperature. Antigen-antibody complexes were visualized with secondary antibodies conjugated with fluorochromes. Specimens were analyzed using a Zeiss confocal microscope (Germany). Ultrathin sections of the kidneys were examined with a Philips CM10 electron microscope (The Netherlands). The number of podocytic FPs was counted in 10 different areas of representative glomeruli. In each area, the number of FPs was calculated within a distance of 1 μm on the GBM (34).
# Animals and treatments: All animal studies were performed under protocols approved by the University of Miami animal care and use committee. C57BL/6 mice were obtained from The Jackson Laboratory. The mouse model LPS-induced proteinuria was utilized as previously described (16). Glutamine (Invitrogen) is injected i.p. (0.75 mg/g mouse) 10 min after LPS ([…]) (Sigma Aldrich, St. Louis, Mo.) injection.
# wt podocytes = assay: F-actin cytoskeleton staining of cultured podocytes; type: cell-based, mouse; details: wt podocytes after LPS treatment, glutamine in medium vs absent
# Protocol: The absence of cathepsin L protected from LPS-mediated loss of F-actin.
# as §2, §3
# podocytes [2] = assay: Intracellular pH of cultured podocytes by CMFDA fluorescence; type: cell-based, mouse; details: glutamine present vs absent in culture medium; normal and α3 integrin deficient podocytes
# Protocol: Podocyte pH was assessed with CMFDA—an indicator for pH. Higher green signal is consistent with a more alkaline cell. The presence of high glutamine levels in cell culture media alkalinizes the normal podocytes as well as podocytes that lack integrin α3β1 (genetic model cells for podocyte disease) (FIG. 3A). Both, LPS and PAN treatment stimulate cathepsin L activity in podocytes. Cathepsin L activity is lower in the presence of high glutamine in the cell culture media that in turn leads to a more alkaline podocyte cytosol (FIGS. 3B, 3C).
# Modification of intracellular pH by glutamine: One of the key feature in podocyte injury that can be found in all three employed cellular podocyte models is the induction of cytosolic cathepsin L that in turn cleaves critical regulators of the podocyte microfilament system resulting in a reorganization of the podocyte actin cytoskeleton and proteinuria (6). In contrast to lysosomal cathepsin L, cytosolic cathepsin L is operating under non-acidic conditions. […] We used a fluorescent dye CMFDA (5-chloromethylfluorescein diacetate) that captures changes in intracellular pH by alterations in fluorescence (25). The more alkaline the pH, the more green fluorescence is detected (FIGS. 11a-c). […] Using CMFDA, the pH in control cells was determined at 7.1 and at 7.3 in α3 integrin-KO podocytes. […]
compound,measurement,setting,value
"CN(C)c1ncnc2c1ncn2[C@@H]1O[C@H](CO)[C@@H](N)[C@H]1O [PAN, puromycin aminonucleoside]",glutamine uptake rate,NIH 3T3,increasing glutamine uptake rate
same,cathepsin L activity in podocytes,cathepsin L; effect of the injury stimulus itself,stimulate
same,glutamine uptake rate,HEK293,increasing glutamine uptake rate
same,glutamine uptake rate,podocytes [1],stimulated
"O=C(NC(Cc1ccccc1)C(=O)NC(Cc1ccccc1)C(=O)CF)OCc1ccccc1 (stereo not drawn) [Z-FF-FMK, Z-Phe-Phe-FMK] (Cbz-Phe-Phe-CH2F; configuration not given here)",inhibition of cathepsin B,cathepsin B,does not inhibit
NC(=O)CC[C@H](N)C(=O)O [glutamine],podocyte foot process effacement (electron microscopy),C57BL/6 mice; LPS-treated mice with glutamine vs LPS only,protects; also recorded: decreased foot process effacement
same,glomerular pH (CMFDA fluorescence of isolated glomeruli),C57BL/6 mice; LPS-treated mice,increase in CMFDA fluorescence; also recorded: glomerular alkalinization; also recorded: increased alkalinity
same,proteinuria (urinary protein/creatinine ratio),"C57BL/6 mice; LPS-treated mice, glutamine 0.75 mg/g i.p., 24 h",ameliorates; also recorded: significant lower
same,glomerular pH (CMFDA fluorescence of isolated glomeruli),"C57BL/6 mice; LPS-treated mice, listed as Glutamine",increase in CMFDA fluorescence
same,cathepsin L activity in podocytes,"cathepsin L; high glutamine in cell culture media, LPS or PAN treated podocytes",lower
same,F-actin presence,wt podocytes,improved F-actin presence
same,podocyte cytosolic pH (CMFDA fluorescence),podocytes [2],alkalinizes; also recorded: more alkaline cytosolic pH
